Results published in US10196345B2, “MAO-B selective inhibitor compounds, pharmaceutical compositions thereof and uses thereof” (The University of British Columbia, priority 2013, dated 2019).
“And” between values parts separate entries of the source, which are not always exact repeats. Equal entries are not always repeated. “Also recorded” adds a separate entry of the source. Structures can show the parent of a compound that is named as a salt. Where two headings read alike, the source gives them in different places.

Key:
[1] = system: Madin Darby canine kidney (MDCK-I) cells; assay: TEER in MDCK-I cells; type: cell-based; conditions: for 144-hour barrier (TEER) vs control: MDCK-I, treated at 72 hours; for effect on TEER (MAO A, B, AB inhibitors): no concentration given
Experimental: In each case, TEER was measured every 48 hours after treatment.
Transwell cultures were treated at 72 hours (T) post-cell plating.
Transepithelial Resistance (TER) is a common method to screen for barrier integrity. […] Fluorescein isothiocyanate conjugated 10 kD dextran (Invitrogen™) will be added to the apical Transwell™ compartment, fixed, and examined for dextran permeation (Umeda et al., 2006).
Amphiregulin (AR) is an EGFR binding ligand and may play a pivotal role in the previously described signaling axis (see FIGS. 15-17). […] (ii) GI [intestinal epithelial cell (IEC)] and (iii) classical [Madin-Darby canine kidney (MDCK-1)].

[2] = target: T1, recombinant human MAO-A (Homo sapiens, UniProt P21397); assay: Cell-free Fluorescent Monoamine Oxidase A&B Detection Assay, MAO-A; type: biochemical; conditions: for IC50: read-out: IC50 MAO-A
T1 sequence (P21397 1-527): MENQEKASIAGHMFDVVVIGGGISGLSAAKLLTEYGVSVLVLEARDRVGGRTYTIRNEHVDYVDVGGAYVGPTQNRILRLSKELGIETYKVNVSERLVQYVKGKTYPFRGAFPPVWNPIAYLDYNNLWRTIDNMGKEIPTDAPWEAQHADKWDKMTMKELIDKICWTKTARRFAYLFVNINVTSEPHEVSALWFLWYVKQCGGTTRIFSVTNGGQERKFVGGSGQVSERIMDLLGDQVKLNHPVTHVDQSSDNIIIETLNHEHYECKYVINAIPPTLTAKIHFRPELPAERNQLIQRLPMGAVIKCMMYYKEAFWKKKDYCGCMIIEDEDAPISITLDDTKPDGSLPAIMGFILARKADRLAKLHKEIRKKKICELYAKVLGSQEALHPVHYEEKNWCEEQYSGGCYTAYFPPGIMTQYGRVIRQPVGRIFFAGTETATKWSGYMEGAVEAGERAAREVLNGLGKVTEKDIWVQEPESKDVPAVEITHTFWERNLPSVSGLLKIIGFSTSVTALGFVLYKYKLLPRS
Experimental: (§1) The assay was repeated to confirm data.
(§2) MAO B specific inhibitory activity and selectivity over MAO A is assayed using a commercial kit [Fluoro MAO A and B detection kit (Cell Technology Inc™)]. This kit uses a non-fluorescent detection reagent to measure H2O2 released from the conversion of an MAO A and MAO B substrate specific to its aldehyde. Furthermore, H2O2 oxidizes the detection reagent in a 1:1 stoichiometry to produce a fluorescent product (resorufin). […] This information is then provided to the medicinal chemists to help direct synthesis of subsequent iterations.

[3] = 14 week study, cited from earlier work
[4] = target: T2, recombinant human MAO-B (Homo sapiens, UniProt P27338); assay: Cell-free Fluorescent Monoamine Oxidase A&B Detection Assay, MAO-B; type: biochemical; conditions: for IC50: read-out: IC50 MAO-B
T2 sequence (P27338 1-520): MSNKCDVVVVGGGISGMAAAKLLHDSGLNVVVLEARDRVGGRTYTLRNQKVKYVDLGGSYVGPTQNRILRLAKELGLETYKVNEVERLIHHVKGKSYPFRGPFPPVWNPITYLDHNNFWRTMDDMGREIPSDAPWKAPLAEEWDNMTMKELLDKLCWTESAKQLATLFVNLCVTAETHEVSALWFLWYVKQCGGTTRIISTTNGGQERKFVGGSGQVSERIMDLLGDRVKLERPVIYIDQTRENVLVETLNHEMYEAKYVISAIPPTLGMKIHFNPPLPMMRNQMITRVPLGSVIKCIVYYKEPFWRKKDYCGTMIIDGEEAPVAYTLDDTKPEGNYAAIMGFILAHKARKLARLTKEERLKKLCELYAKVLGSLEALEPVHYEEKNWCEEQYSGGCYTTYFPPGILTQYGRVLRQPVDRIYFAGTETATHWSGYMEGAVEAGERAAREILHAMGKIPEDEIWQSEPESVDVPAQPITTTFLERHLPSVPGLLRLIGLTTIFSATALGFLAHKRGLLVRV
Experimental: as §1, §2

[5] = in vitro BBB permeability in MDCK-WT cells; conditions: dog, MDCK
Source text: (§3) Wildtype Madin-Darby canine cells (MDCK-WT) were used to predict CNS permeability of compounds PS-RG0103, PS-RG0216, PS-RG0245 and PS-AD0191. […] J Allergy Clin Immunol. 1990; 86(6 pt 2): p. 1025-8.
(§4) Novel MAO B inhibitors selected based on the above screening program will be screened using an in vitro model of blood brain barrier (BBB). Madin-Darby canine kidney (MDCK-WT) and MDCK cells transfected with the human MDR1 gene (MDCK-MDR1) are well established in vitro models used to predict a compound's ability to permeate the blood brain barrier (BBB). […] Apparent permeability (Papp), Efflux ratio (Papp B-A/Papp A-B), as well as the Net flux ratio (Efflux ratioMDCK-MDR1/Efflux ratioMDCK-WT) can be calculated to identify compound BBB permeability and identify compounds that are substrates of P-gp.

[6] = stability assay in human liver microsomes; conditions: after 60 minutes at room temperature
[7] = stability assay in mouse liver microsomes; conditions: after 60 minutes at room temperature
[8] = hepatocytes, 1 h
[9] = system: Wildtype Madin-Darby canine cells (MDCK-WT); assay: in vitro BBB permeability in MDCK-WT cells; conditions: MDCK-WT; one-way ANOVA, Dunnett's test
Source text: as §3, §4

[10] = cell-free, recombinant human MAO-A
[11] = cell-free, recombinant human MAO-A, read-out: IC90 MAO-A

C#CCN(C)CCCOc1ccc(Cl)cc1Cl [Clorgyline]
144-hour barrier (TEER) vs control ([1]; 5 μm inhibitor): significantly reduced the barrier
144-hour barrier (TEER) vs control ([1]; 40 μm inhibitor): significantly reduced the barrier
effect on TEER (MAO A, B, AB inhibitors) [1]: generally reduced TEER
IC90 ([2]; read-out: IC90 MAO-A (μM)): 0.00624 µM

C#CCN(C)[C@H](C)Cc1ccccc1 [L-selegiline]
total body fat reduction compared to control rats [3]: 30%
food intake vs untreated controls ([3]; rats): comparable
lower weight gain compared to untreated controls ([3]; rats): 14%
plasma leptin levels reduction ([3]; rats): 41%

CN(CC(=O)O)[C@H](CC#N)Cc1ccc(OCc2ccc(Cl)c(Cl)c2)cc1.Cl [PS-AD0191, (S)—N-(1-cyano-3-(4-((3,4-dichlorobenzyl)oxy)phenyl)propan-2-yl)-N-methylglycine]
IC90 [4]: 1.03 µM
IC50 [4]: 0.3 µM and 0.302 µM
Papp [5]: 7.9 ± 1.4 ×10⁻⁶ cm/s
IC50 [2, 10]: 54.6 µM
IC90 [2, 11]: 424 µM

C[C@H](Cc1ccc(OCc2cccc(Cl)c2)cc1)N(C)CC(=O)O [PS-RG0103, N—((R)-(1-(4-(3-chlorobenzyloxy)phenyl)propan-2-yl)(methyl))glycine hydrochloride]
IC90 [4]: 2.27 µM
IC50 [4]: 0.27 µM and 0.275 µM
compound remaining in human microsome [6]: 93%
Papp [5]: 2.2 ± 0.2 ×10⁻⁶ cm/s
compound remaining in mouse microsome [7]: 69%
compound remaining, mouse hepatocyte stability [8]: 101%
IC50 MAO-A (μM) ([2]; cell-free, recombinant human MAO-A, hydrochloride): no activity on MAO-A; also recorded: Does not

C[C@H](Cc1ccc(OCc2cc(F)cc(F)c2)cc1)N(C)CC(=O)O.Cl [PS-RG0174, (R)—N-(1-(4-((3,5-difluorobenzyl)oxy)phenyl)propan-2-yl)-N-methylglycine hydrochloride]
IC90 [4]: 6.7 µM
IC50 [4]: 0.794 µM
IC50 MAO-A (μM) [2, 10]: Does not

CN(CC(=O)O)[C@H](CO)Cc1ccc(OCc2ccccc2)cc1 [PS-RG0188, (S)—N-(1-(4-(benzyloxy)phenyl)-3-hydroxypropan-2-yl)-N-methylglycine]
IC90 [4]: 19.7 µM
IC50 [4]: 0.738 µM
IC50 MAO-A (μM) [2, 10]: Does not

O=C([O-])C1=N[C@@H](Cc2ccccc2)CO1.[Na+] [PS-RG0200]
IC90 MAO-B (μM) [4]: Does not
IC50 MAO-A (μM) [2, 10]: Does not

CN(CC(=O)O)c1ccc(CCOCc2ccccc2)cc1.Cl [PS-RG0210]
IC90 [4]: 708 µM
IC50 [4]: 23.6 µM
IC50 MAO-A (μM) [2, 10]: Does not

C[C@H](Cc1ccc(OCc2ccccn2)cc1)N(C)CC(=O)O.Cl.Cl [PS-RG0217, (R)—N-methyl-N-(1-(4-(pyridin-2-ylmethoxy)phenyl)propan-2-yl)glycine hydrochloride]
IC90 [4]: 577 µM
IC50 [4]: 26.6 µM
IC50 MAO-A (μM) [2, 10]: Does not

C[C@H](Cc1ccc(OCc2cccnc2)cc1)N(C)CC(=O)O.Cl.Cl [PS-RG0218]
IC90 MAO-B (μM) [4]: Does not
IC50 MAO-A (μM) [2, 10]: Does not

C[C@H](Cc1ccc(OCC(=O)O)cc1)N(C)CC(=O)O.Cl [PS-RG0219]
IC90 MAO-B (μM) [4]: Does not
IC50 MAO-A (μM) [2, 10]: Does not

C[C@H](Cc1ccc(OCc2ccc(Cl)cc2)cc1)N(C)CC(=O)O [PS-RG0226, (R)—N-(1-(4-((4-chlorobenzyl)oxy)phenyl)propan-2-yl)-N-methylglycine hydrochloride]
IC90 [4]: 3.42 µM
IC50 [4]: 0.505 µM
IC50 [2, 10]: 198 µM
IC90 [2, 11]: 1260 µM

C[C@H](Cc1ccc(OCc2ccc3ccccc3c2)cc1)N(C)CC(=O)O [PS-RG0227, (R)—N-methyl-N-(1-(4-(naphthalen-2-ylmethoxy)phenyl)propan-2-yl)glycine hydrochloride]
IC90 [4]: 843 µM
IC50 [4]: 11.5 µM
IC50 [2, 10]: 955 µM
IC90 [2, 11]: 63000 µM

C[C@H](Cc1ccc(OCc2ccc(Cl)c(Cl)c2)cc1)N(C)CC(=O)O.Cl [PS-RG0245, (R)—N-(1-(4-((3,4-dichlorobenzyl)oxy)phenyl)propan-2-yl)-N-methylglycine hydrochloride]
IC90 [4]: 0.873 µM
IC50 [4]: 0.21 µM and 0.207 µM
Papp [5]: 3.6 ± 0.2 ×10⁻⁶ cm/s
permeability compared with cetirizine [9]: not different from cetirizine
IC50 [2, 10]: 17.2 µM and 17.1 µM
IC90 [2, 11]: 99.8 µM

COC(=O)c1ccc(COc2ccc(C[C@@H](C)N(C)CC(=O)O)cc2)cc1.Cl [PS-RG0246, (R)—N-(1-(4-((4-(methoxycarbonyl)benzyl)oxy)phenyl)propan-2-yl)-N-methylglycine hydrochloride]
IC90 [4]: 10600 µM
IC50 [4]: 361 µM
IC50 MAO-A (μM) [2, 10]: Does not

C[C@H](Cc1ccc(OCCc2ccccc2)cc1)N(C)CC(=O)O.Cl [PS-RG0247]
IC90 [4]: 619 µM
IC50 [4]: 19.3 µM
IC50 MAO-A (μM) [2, 10]: Does not

COc1cccc(COc2ccc(C[C@@H](C)N(C)CC(=O)O)cc2)c1 [PS-RG0264, (R)—N-(1-(4-((3-methoxybenzyl)oxy)phenyl)propan-2-yl)-N-methylglycine hydrochloride]
IC90 [4]: 50.5 µM
IC50 [4]: 2.22 µM
IC50 [2, 10]: 359 µM
IC90 [2, 11]: 78500 µM

O=C(NCCN1CCOCC1)c1ccc(Cl)cc1 [moclobemide]
144-hour barrier (TEER) vs control ([1]; 5 μm inhibitor): increased over control
barrier integrity at low doses ([1]; low doses): small increase in the barrier integrity
effect on TEER (MAO A, B, AB inhibitors) [1]: generally reduced TEER

C#CCN(C)Cc1ccccc1 [pargyline]
144-hour barrier (TEER) vs control ([1]; 5 μm inhibitor): increased over control
144-hour barrier (TEER) vs control ([1]; 40 μm inhibitor): increased over control
effect on TEER (MAO A, B, AB inhibitors) [1]: increased TEER
